Assay results published in paper PMC5556071, “ATR inhibition facilitates targeting of leukemia dependence on convergent nucleotide biosynthetic pathways” (Nature Communications, 2017).

System: CHEK1 pS345
Assay: Western blot of replication stress marker in CEM cells
Assay type: cell-based, human
Procedure: Cells were lysed using RIPA buffer supplemented with protease (ThermoFisher, 78,430) and phosphatase (ThermoFisher, 78,420) inhibitors, scraped, sonicated, and centrifuged (20,000 × g at 4 °C). Protein concentrations in the supernatant were determined using the Micro BCA Protein Assay kit (Thermo), and equal amounts of protein were resolved on pre-made Bis-Tris polyacrylamide gels (Life Technologies). Primary antibodies: pS345 CHEK1 (Cell signaling, #2348 L, 1:1000), pT68 CHEK2 (Cell signaling, #2197 S, 1:1000), pS139 H2A.X (Millipore, 05-636, 1:1000), clvd. Casp8 (Cell signaling, #8592, 1:1000), clvd. Casp9 (Cell signaling, #9502, 1:1000), clvd. Casp3 (Cell signaling, #9662, 1:1000), clvd. PARP (Cell signaling, #5625 P, 1:1000), and anti-actin (Cell Signaling Technology, 9470, 1:10,000). Primary antibodies were stored in 5% BSA (Sigma-Aldrich) and 0.1% NaN3 in TBST solution. Anti-rabbit IgG HRP-linked (Cell Signaling Technology, 7074, 1:2500) and anti-mouse IgG HRP-linked (Cell Signaling Technology, 7076, 1:2500) were used as secondary antibodies. Chemiluminescent substrates (ThermoFisher Scientific, 34,077 and 34,095) and autoradiography film (Denville) were used for detection.

`CNCc1ccc(-c2cc(-c3nc(-c4ccc(S(=O)(=O)C(C)C)cc4)cnc3N)on2)cc1` [VE-822] was tested, and the “CHEK1 pS345 induced by RNR inhibition” value (0.5 h time point) was “abrogated”, the “CHEK1 pS345 induced by RNR inhibition” value (4 h time point) was “partially inhibited” and the “CHEK1 pS345 levels” value (CEM cells, VE-822 1 µM, 24 h) was “reduced”.
